Source: patent US12545677B2, “Compounds useful as factor XIa inhibitors” (JANSSEN PHARMACEUTICA NV, priority 2020, dated 2026)
Like-named read-outs stand apart in the source and are kept apart here.

Columns and labels:
Rat PK study = assay type: in vivo, Sprague-Dawley rats
Experimental: Biological Example 5: PK Studies
Animals: Male Sprague-Dawley rats (7-8 weeks old, body weight 250-300 g) were kept in plastic cages with free access to standard rat diet (Keaoxieli, Beijing, China) and water. The animals were maintained at a temperature of 20-25° C. with a 12-hour light/dark cycle and relative humidity of 40%-70% before the experiment.
Pharmacokinetics in rats: The cannulation of the jugular vein was pre-treated to the rats 2-3 days prior to the study. Test compound (dissolved in PEG400/water (1:1) or suspended in 0.5% HPMC) was administered orally via oral gavage at a dose of 5 or 10 mg/kg to 3 rats, and test compound (dissolved in 20% HPbCD or PEG400/water (1:1)) was injected to the tail vein at a dose of 1 or 2 mg/kg to 3 rats.
Blood samples (approximately 0.2 ml, each) were collected from the jugular vein at 0 (as a pre-dose), 5 (only for IV administration), 15, 30, 60, 120, 240, 360, 480 and 1440 mins post dose. A volume of 0.2 ml of heparinized 0.9% NaCl injectable solution (50 U/mL) was used to flush each cannula immediately after obtaining each blood sample, in order to prevent blood clotting and to compensate for fluid loss. Blood samples were separated by centrifugation, and approximately 0.1 ml aliquot of plasma was stored at −80° C. until analysis.
LC-MS/MS analysis: The analyte was assayed by a liquid chromatography coupled with tandem mass spectrometry (LC-MS/MS) method. The LC-MS/MS system consisted of a Shimadzu HPLC system (Kyoto, Japan) and API 5500 triple-quadrupole mass spectrometer equipped with a turbo electrospray ionization (ESI) source (AB Sciex, Toronto, Canada). LC conditions were as follows: column, Synergi 2.5μ Polar-RP 100A (50*3.0 mm) (Phenomenex, Torrance, CA); gradient elution at 0.5 mL/min with 5% acetonitrile in water containing 0.1% formic acid or 95% acetonitrile in water containing 0.1% formic acid; and injection volume, 10 μL. A multiple reaction monitoring (MRM) method was selected for quantitative analysis. The optimized transitions were Q1→Q3 and M1→M3 for analyte and internal standard, respectively. The instrumental parameters were set as follows: ion spray voltage: 5500 V; curtain gas: 30 psi; nebulizer gas: 50 psi; turbo gas: 50 psi; collision gas: 10 psi; temperature: 450° C.
Data analysis: Standard methods were used to calculate the pharmacokinetic parameters, such as the total area under the plasma concentration-time curve from time 0 to infinity (AUC0-t) and terminal half-life, using non-compartmental analysis (WinNonlin), the peak plasma concentration (Cmax) and time to reach Cmax (Tmax) were determined directly from the experimental data.

Factor XIa = Factor XIa (Homo sapiens, UniProt P03951); test: Factor XIa inhibition assay using fluorophore-quencher pair peptide substrate; assay type: biochemical
Description: Biological Example 1: Factor XIa Inhibition Assay
Using Fluorophore-quencher Pair Peptide Substrate
A fluorescence intensity-based assay was used to monitor inhibition of Factor XIa. The peptide substrate, 5Fam-[…]-K5Tamra (purchased from New England Peptide) was chosen based on the […]. Conversion of zymogen FIX to its activated form, FIXa, occurs by proteolytic cleavage by FXIa at two sites, Arg146 and Arg180. The custom peptide used in this assay was based on the Arg146 cleavage site. The peptide substrate was designed with a fluorophore-quencher pair, where the fluorescence is quenched until FXIa cleaves the 8-mer peptide after the Arg residue.
Factor XIa FLINT assay was used with the following 5Fam-[…]-K5Tamra assay buffer: 50 mM Tris, pH 7.5, 100 mM NaCl, 5 mM CaCl2, 0.1 mg/mL BSA, 0.03% CHAPS was used. Assay buffer was prepared by mixing all ingredients fresh. 2×5Fam-[…]-K5Tamra peptide substrate was first prepared in 100% DMSO, then diluted 10 mM to 3 mM in 100% DMSO. Assay buffer was then added directly to the 3 mM stock of substrate to prepare the 30 μM 2× working concentration (15 μM final concentration). The 2× Factor XIa stock solution was prepared by diluting 6.562 μM stock in 1× assay buffer for a 200 pM working stock solution (100 pM final concentration).
Test compound(s) were run in an 11-point, 3-fold serial dilution with a final top compound concentration of […]. Final DMSO in assay was 2% DMSO. FXIa and compound were pre-incubated for 30 minutes and substrate was then added to initiate the reaction. The assay was linear using 100 pM FXIa greater than 30 minutes. More specifically, the assay was run as follows: • 100 nL of 1 mM test compound was dispensed into a black 384-well non-binding Greiner BioOne 784900 plate for 10 μM final concentration with 1% DMSO final concentration; • 5 μL of 1× assay buffer was dispensed to column 24 (low control) and 5 μL 2× Factor XIa solution was dispensed to columns 1-23 (column 23 high control); • the plate was centrifuged with a “cover” plate at 500 rpm for 1 min • the plate was pre-incubated for 30 minutes at room temperature with plate covered; • 5 μL of 2× 5Fam-[…]-K5Tamra peptide substrate was dispensed into the entire plate, columns 1-24; • the plate was centrifuged with a cover plate at 500 rpm for 1 min; • the plate was read kinetically monitoring fluorescence intensity on the BMG PHERAStar at room temperature, using fluorescence module F1 485 mm/520 mm.
Percent inhibition (IC50) curves were generated per compound tested, and data was analyzed using a 4-parameter logistic fit using GeneData Screener. […]

Sequence of Factor XIa (P03951 388-625 limits assumed): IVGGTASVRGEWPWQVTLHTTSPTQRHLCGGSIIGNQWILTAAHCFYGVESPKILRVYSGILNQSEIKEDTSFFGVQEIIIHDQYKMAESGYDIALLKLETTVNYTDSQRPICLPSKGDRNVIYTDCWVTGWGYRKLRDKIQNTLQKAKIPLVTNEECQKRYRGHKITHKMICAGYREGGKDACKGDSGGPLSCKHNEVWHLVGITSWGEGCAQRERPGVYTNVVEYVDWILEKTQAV
Sequence of Factor XIa (P03951 19-387 partner limits assumed): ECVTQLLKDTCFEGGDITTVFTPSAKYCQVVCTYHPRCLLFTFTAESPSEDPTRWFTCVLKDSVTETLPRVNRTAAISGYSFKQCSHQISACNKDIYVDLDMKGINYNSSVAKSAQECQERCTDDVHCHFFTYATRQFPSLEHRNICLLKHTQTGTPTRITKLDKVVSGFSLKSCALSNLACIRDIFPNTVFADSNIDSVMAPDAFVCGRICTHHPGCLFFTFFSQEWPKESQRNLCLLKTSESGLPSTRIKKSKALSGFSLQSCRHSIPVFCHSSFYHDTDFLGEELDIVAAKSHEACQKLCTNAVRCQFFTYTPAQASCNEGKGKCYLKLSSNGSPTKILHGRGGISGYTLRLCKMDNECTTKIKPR

IC50 (Factor XIa) [nM]	SMILES	F (Rat PK study; formulation vehicle: 0.5% HPMC at 10 mg/kg)	clearance (Rat PK study; male, Sprague-Dawley, plasma, IV, 20% HPbCD at 2 mg/kg) [L/h/kg]	half-life (Rat PK study; male, Sprague-Dawley, plasma, IV, formulation vehicle: 20% HPbCD at 2 mg/kg, read-out: t1/2 (IV) (converted)) [h]	Cmax (Rat PK study; male, Sprague-Dawley, plasma, PO, 0.5% HPMC at 10 mg/kg) [µg/mL]	half-life (Rat PK study; male, Sprague-Dawley, plasma, PO, 0.5% HPMC at 10 mg/kg, read-out: t1/2 (PO) (converted)) [h]
–	O=C1C=C(c2c(-n3cnnn3)ccc(Cl)c2F)C[C@H]2CC[C@@H](c3ncc(-c4ccnc(CO)c4F)[nH]3)N12 [Compound of formula (I-A), (3S,8aR)-7-(3-Chloro-2-fluoro-6-(1H-tetrazol-1-yl)phenyl)-3-(5-(3-fluoro-2-(hydroxymethyl)pyridin-4-yl)-1H-imidazol-2-yl)-2,3,8,8a-tetrahydroindolizin-5(1H)-one]	53.4% (formulation vehicle: 0.5% HPMC at 10 mg/kg)	1.18	3.25	3.77	2.66
0.3	O=C(O)c1nccc(-c2cnc([C@@H]3CC[C@@H]4CC(c5c(-n6cnnn6)ccc(Cl)c5F)=CC(=O)N43)[nH]2)c1F [Compound of formula (II-A), 4-(2-((3S,8aR)-7-(3-chloro-2-fluoro-6-(1H-tetrazol-1-yl)phenyl)-5-oxo-1,2,3,5,8,8a-hexahydroindolizin-3-yl)-1H-imidazol-5-yl)-3-fluoropicolinic acid]	–	–	–	–	–
